Assay results: paper PMC10167667, “Structural and functional characterization of a multi-domain GH92 α-1,2-mannosidase from Neobacillus novalis” (Acta Crystallographica. Section D, Structural Biology, 2023)

Target: T1, NnGH92 (Neobacillus novalis, UniProt A0A7R9KAR8)
T1 construct: full-length five-domain enzyme without native signal peptide (Ser34-Asp1411); Alcalase signal peptide then N-terminal HHHHHHPR tag kept; secreted from Bacillus subtilis
Assay: X-ray crystal structure, […] Å
Assay type: binding
Details: co-crystallised with 5 mM mannoimidazole and 8 mM CaCl2, pH 6.6; catalytic active site (-1 subsite, Ca2+); second site in N-terminal CBM32 (chain A)

T1 sequence (A0A7R9KAR8 entry or part of it): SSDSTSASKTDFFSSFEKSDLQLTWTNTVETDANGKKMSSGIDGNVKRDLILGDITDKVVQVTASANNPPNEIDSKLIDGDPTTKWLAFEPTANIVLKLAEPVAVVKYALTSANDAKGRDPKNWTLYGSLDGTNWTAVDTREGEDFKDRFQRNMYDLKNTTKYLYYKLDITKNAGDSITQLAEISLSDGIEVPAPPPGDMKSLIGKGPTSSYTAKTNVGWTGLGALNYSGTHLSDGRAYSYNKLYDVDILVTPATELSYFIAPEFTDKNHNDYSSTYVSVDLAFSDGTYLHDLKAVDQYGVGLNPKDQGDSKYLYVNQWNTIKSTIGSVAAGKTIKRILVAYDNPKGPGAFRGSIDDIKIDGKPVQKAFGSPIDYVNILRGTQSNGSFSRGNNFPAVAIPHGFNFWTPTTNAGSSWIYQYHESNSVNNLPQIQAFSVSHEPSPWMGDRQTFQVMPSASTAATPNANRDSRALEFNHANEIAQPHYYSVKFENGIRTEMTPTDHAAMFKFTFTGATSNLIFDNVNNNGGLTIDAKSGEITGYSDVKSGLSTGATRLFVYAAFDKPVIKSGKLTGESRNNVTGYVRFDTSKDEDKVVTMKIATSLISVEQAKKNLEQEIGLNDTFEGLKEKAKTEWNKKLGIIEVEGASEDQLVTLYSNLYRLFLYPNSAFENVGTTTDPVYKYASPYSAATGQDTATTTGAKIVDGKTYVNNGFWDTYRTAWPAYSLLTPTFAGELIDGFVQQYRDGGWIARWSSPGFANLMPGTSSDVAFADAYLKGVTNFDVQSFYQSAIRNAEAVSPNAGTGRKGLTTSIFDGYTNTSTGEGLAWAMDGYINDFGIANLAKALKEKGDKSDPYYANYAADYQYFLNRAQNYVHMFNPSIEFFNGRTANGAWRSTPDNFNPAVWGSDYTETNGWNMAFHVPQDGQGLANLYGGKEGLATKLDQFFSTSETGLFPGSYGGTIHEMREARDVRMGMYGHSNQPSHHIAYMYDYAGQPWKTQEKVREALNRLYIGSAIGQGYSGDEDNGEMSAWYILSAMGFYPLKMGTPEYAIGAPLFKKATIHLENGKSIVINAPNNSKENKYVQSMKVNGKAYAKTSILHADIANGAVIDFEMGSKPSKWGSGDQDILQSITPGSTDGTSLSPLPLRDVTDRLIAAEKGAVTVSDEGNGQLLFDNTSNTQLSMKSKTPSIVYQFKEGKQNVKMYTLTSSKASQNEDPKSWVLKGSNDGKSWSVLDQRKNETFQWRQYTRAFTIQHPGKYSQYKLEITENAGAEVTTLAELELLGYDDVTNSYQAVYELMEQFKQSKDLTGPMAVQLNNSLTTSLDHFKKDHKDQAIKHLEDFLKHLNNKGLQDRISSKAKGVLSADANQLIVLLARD

OC[C@@H]1[C@@H](O)[C@H](O)[C@H](O)c2nccn21 [mannoimidazole]
X-ray crystal structure, 2.3 Å: solved in complex with the mannosidase inhibitor mannoimidazole (ManI; PDB entry 7nsn
